Data reported in patent US11753376B2, “Benzyloxy pyridine derivatives and uses thereof” (AUTOTAC INC., priority 2021, dated 2023).

Test system: intracellular autophagy flux (LC3-II) in HEK293T cell line
Test: Evaluation of intracellular autophagy activity (autophagy flux) by immunoblotting
Format: cell-based, human
Conditions: HCQ 5 μM, 24 hours
Experimental: In order to evaluate the autophagy flux activity efficacy by the compounds, the HEK293T cell line, which is a cell line derived from a human embryonic kidney-derived cell, was cultured using a DMEM medium containing 10% FBS and 1% streptomycin/penicillin in an incubator with 5% carbon dioxide. In order to measure the autophagy flux activity according to the treatment of the compounds synthesized in the above examples, each cell was dispensed in a 6-well plate. Additional incubation was carried out for 24 hours so that the cells were completely attached to the surface of the plate. Cells were collected after treatment with the compound (5 μM) alone or with the lysosomal inhibitor, hydroxychloroquine (HCQ) (5 μM) for 24 hours to determine whether the compound increases autophagy flux. […] Based on the measured total protein concentration, a sample buffer was added to each sample and reacted at 100° C. for 5 minutes. […]
FIG. 2 is a result of immunoblotting showing the efficacy of the compound (ATB1110) to activate intracellular autophagy flux. […] As HCQ was treated, the level of LC3-II, a marker of autophagy activity, was increased, and the difference between LC3-II in the untreated state and the treated state was measured. […]

## CCN(CCO)CCCC(C)Nc1ccnc2cc(Cl)ccc12 (stereo not shown) [HCQ, hydroxychloroquine]
  level of LC3-II, a marker of autophagy activity: increased
